Measured values reported in patent publication US20100285959A1, “HERBICIDAL MIXTURES” (priority 2006, published 2010).

Tests used:
winter barley (HORVW) = assay: Test 19 growth chamber, postemergence; format: in vivo, Hordeum vulgare
Description: (§1) A test was conducted to evaluate the effects on winter barley (HORVW, Hordeum vulgare L.) and winter wheat (TRZAW, Triticum aestivum L.) of mixtures of Compound 2 with the commercial herbicide (2,4-dichlorophenoxy)acetic acid (2,4-D), an auxin mimic. […] Plants were treated postemergence at the 3-leaf growth stage, and each treatment was replicated four times. […] Plants were watered as needed. […] Results are the means of the four replicates.

winter wheat (TRZAW) = assay: Test 19 growth chamber, postemergence; format: in vivo, Triticum aestivum
Description: as §1

kochia (KCHSC) = assay: Test 21 growth chamber, postemergence; format: in vivo, Kochia scoparia; conditions: 19 DAA
Description: as §1, with “L.),” for “L.) and”, “L.), and several weed species,” for “L.)”, “2-4 leaf” for “3-leaf”, “one time.” for “four times.”, “from single” for “the means of the four”

field poppy (PAPRH) = assay: Test 21 growth chamber, postemergence; format: in vivo, Papaver rhoeas; conditions: 19 DAA
Description: as §1, with “L.),” for “L.) and”, “L.), and several weed species,” for “L.)”, “2-4 leaf” for “3-leaf”, “one time.” for “four times.”, “from single” for “the means of the four”

wild buckwheat (POLCO) = assay: Test 21 growth chamber, postemergence; format: in vivo, Polygonum convolvulus; conditions: 19 DAA
Description: as §1, with “L.),” for “L.) and”, “L.), and several weed species,” for “L.)”, “2-4 leaf” for “3-leaf”, “one time.” for “four times.”, “from single” for “the means of the four”

wild chamomile (MATCH) = assay: Test 23 growth chamber, postemergence; format: in vivo, Matricaria chamomilla; conditions: 21 DAA
Description: A test was conducted to evaluate the effects on winter barley (HORVW, Hordeum vulgare L.), winter wheat (TRZAW, Triticum aestivum L.), and several weed species of mixtures of Compound 2 with the commercial herbicides (2,4-dichlorophenoxy)acetic acid (2,4-D) and (4-chloro-2-methylphenoxy)acetic acid (MCPA), auxin mimics. […] Plants were treated postemergence at the 2-4 leaf growth stage, and each treatment was replicated three times. […] Plants were watered as needed. […] Results are means of the three replicates.

wheat (TRZAW) = assay: Test 30 growth chamber, postemergence; format: in vivo, Triticum aestivum
Description: (§2) A growth chamber test was conducted to evaluate the effects on the plant species wheat (TRZAW, Triticum aestivum L.) and barley (HORVX, Hordeum vulgare L.) with mixtures of Compound 1 and Compound 2 with glycerol. Wheat and barley seeds were planted in a sandy loam soil having 0.9% organic matter and a pH of 6.3. […] Wheat and barley plants were treated postemergence at the two leaf growth stage for Compound 1 and at the three leaf growth stage for Compound 2. Each treatment was replicated one time. […] Plants were watered as needed. […] Colby's Equation was used to determine herbicidal effects expected from the mixtures.

barley (HORVX) = assay: Test 30 growth chamber, postemergence; format: in vivo, Hordeum vulgare
Description: as §2

redroot pigweed (AMARE) = assay: Test 7 field trial, preemergence; format: in vivo, Amaranthus retroflexus
Description: Plots were 7.6 m long by 3.0 m wide with rows spaced 76 cm apart. Seeds were spaced 15 cm apart within the rows. The field was managed using conventional tillage practices. […] Wild radish was evaluated 14 and 28 days after application. […] Results are the means of the three replicates.

giant ragweed (AMBTR) = assay: Test 9 field trial, emerged weeds before corn planting; format: in vivo, Ambrosia trifida; conditions: g a.i./ha: Cpd 2 100, Glyphosate 1540, Paraquat 1150
Description: Corn seeds (hybrid ‘Pioneer 34M91 RR’) were planted in mid spring season, about 3.8 cm deep in a silty clay loam soil having a pH of 6.7. Plots were 9.1 m long by 3.0 m. The field was managed using no-till practices. […] Compound 2 and paraquat treatments, alone and in combination, also included a surfactant. Glyphosate, alone and with Compound 2, included ammonium sulfate in the treatment mixture. […] The effects on the weeds in the treated plots and untreated control plots were recorded 7, 14, 23, 30 and 57 days after application. Most of the weed species could not be evaluated at every timing. Corn response was only evaluated 57 days after application. […] Results are the means of the three replicates.

[1] = system: ladysthumb smartweed (POLPE); assay: Test 14 field trial, preemergence, growth as percent of control; format: in vivo, Polygonum persicaria
Excerpt: Corn seeds (hybrid ‘Pioneer 31G96 RR’) were planted in mid spring season, 3.8 cm deep in a clay loam soil having 2% organic matter and a pH of 6.6. Plots were 6.1 m long by 3.0 m wide with rows spaced 76 cm apart. Seeds were spaced 15 cm apart within the rows. The field was managed using conventional tillage practices. […] Yellow nutsedge was only evaluated 19 and 28 days after application, and ivyleaf morningglory could only be evaluated 28 days after application. […] Results are the means of the three replicates. This growth inhibition data was converted to results in the form of “plant growth as a percent of control plant growth” using the calculation “100 minus growth inhibition”. […] For “growth as a percent of control” data, Colby's Equation calculates the expected additive effect of herbicidal mixtures having two active ingredients as follows:
Ga+b=GaGb/100 • wherein Ga+b is the growth as a percent of control of plants treated with the mixture expected from additive contribution of the individual components, • Ga is the observed growth as a percent of control of plants treated with the first active ingredient at the same use rate as in the mixture, and • Gb is the observed growth as a percent of control of plants treated with the second active ingredient at the same use rate as in the mixture. For mixtures having three active ingredients, Colby's Equation to calculate the expected additive effect of herbicidal mixtures is as follows:
Ga+b+c=GaGbGc/10,000 • wherein Ga and Gb are as defined above and • Ga+b+c is the growth as a percent of control of plants treated with the mixture expected from additive contribution of the individual components, and • Gc is the observed growth as a percent of control of plants treated with the third active ingredient at the same use rate as in the mixture. When these two forms of Colby's Equation are used, if the observed effects on weeds are less than the expected values, the mixture is synergistic.

[2] = Postemergence, 17 DAA, g a.i./ha: Cpd 2 16, 2,4-D 250
[3] = Postemergence, 17 DAA, g a.i./ha: Cpd 2 16, 2,4-D 500
[4] = Postemergence, 17 DAA, g a.i./ha: Cpd 2 16, 2,4-D 1000

## O=C(O)COc1ccc(Cl)cc1Cl [2,4-D, (2,4-dichlorophenoxy)acetic acid]
Winter barley (HORVW); [2]
  HORVW Obs: 15
Winter barley (HORVW); [3]
  HORVW Obs: 5
Winter barley (HORVW); [4]
  HORVW Obs: 10
Winter wheat (TRZAW); [2]
  TRZAW Obs: 23
Winter wheat (TRZAW); [3]
  TRZAW Obs: 23
Winter wheat (TRZAW); [4]
  TRZAW Obs: 25
Kochia (KCHSC); 2,4-D alone 125 g a.i./ha
  Postemergence KCHSC Obs: 45
Kochia (KCHSC); 2,4-D alone 250 g a.i./ha
  Postemergence KCHSC Obs: 45
Field poppy (PAPRH); 2,4-D alone 125 g a.i./ha
  Postemergence PAPRH Obs: 35
Field poppy (PAPRH); 2,4-D alone 250 g a.i./ha
  Postemergence PAPRH Obs: 35
Wild buckwheat (POLCO); 2,4-D alone 125 g a.i./ha
  Postemergence POLCO Obs: 20
Wild buckwheat (POLCO); 2,4-D alone 250 g a.i./ha
  Postemergence POLCO Obs: 20
Wild chamomile (MATCH); 2,4-D or MCPA alone 250 g a.i./ha
  Postemergence MATCH Obs: 60

## Nc1nc(C2CC2)nc(C(=O)O)c1Cl [Compound 1, 6-amino-5-chloro-2-cyclopropyl-4-pyrimidinecarboxylic acid]
Wheat (TRZAW); 18 DAA, Cpd 1 1 g a.i./ha
  TRZAW Obs: 30%
Wheat (TRZAW); 18 DAA, Cpd 1 4 g a.i./ha
  TRZAW Obs: 35%
Wheat (TRZAW); 18 DAA, Cpd 1 16 g a.i./ha
  TRZAW Obs: 45%
Barley (HORVX); 18 DAA, Cpd 1 1 g a.i./ha
  HORVX Obs: 0%
Barley (HORVX); 18 DAA, Cpd 1 4 g a.i./ha
  HORVX Obs: 20%
Barley (HORVX); 18 DAA, Cpd 1 16 g a.i./ha
  HORVX Obs: 40%

## COC(=O)c1nc(C2CC2)nc(N)c1Cl [Compound 2, methyl 6-amino-5-chloro-2-cyclopropyl-4-pyrimidinecarboxylate]
Redroot pigweed (AMARE); 14 DAA, 125 g a.i./ha
  AMARE Obs: 97%
Redroot pigweed (AMARE); 14 DAA, 250 g a.i./ha
  AMARE Obs: 100%
Redroot pigweed (AMARE); 14 DAA, 500 g a.i./ha
  AMARE Obs: 100%
Redroot pigweed (AMARE); 28 DAA, 125 g a.i./ha
  AMARE Obs: 92%
Redroot pigweed (AMARE); 28 DAA, 250 g a.i./ha
  AMARE Obs: 100%
Redroot pigweed (AMARE); 28 DAA, 500 g a.i./ha
  AMARE Obs: 100%
Redroot pigweed (AMARE); 62 DAA, 125 g a.i./ha
  AMARE Obs: 80%
Redroot pigweed (AMARE); 62 DAA, 500 g a.i./ha
  AMARE Obs: 100%
Giant ragweed (AMBTR); 7 DAA
  AMBTR Obs: 85%
Giant ragweed (AMBTR); 14 DAA
  AMBTR Obs: 83%
Giant ragweed (AMBTR); 57 DAA
  AMBTR Obs: 89%
[1]; 19 DAA, 75 g a.i./ha
  Obs growth % of control: 88%
[1]; 19 DAA, 100 g a.i./ha
  Obs growth % of control: 77%
[1]; 28 DAA, 75 g a.i./ha
  Obs growth % of control: 45%
[1]; 28 DAA, 100 g a.i./ha
  Obs growth % of control: 58%
[1]; 56 DAA, 75 g a.i./ha
  Obs growth % of control: 75%
[1]; 56 DAA, 100 g a.i./ha
  Obs growth % of control: 80%
Winter barley (HORVW); in vivo
  HORVW Obs: 45
Winter wheat (TRZAW); in vivo
  TRZAW Obs: 43
Kochia (KCHSC); Cpd 2 alone 16 g a.i./ha
  Postemergence KCHSC Obs: 65
Field poppy (PAPRH); Cpd 2 alone 16 g a.i./ha
  Postemergence PAPRH Obs: 65
Wild buckwheat (POLCO); Cpd 2 alone 16 g a.i./ha
  Postemergence POLCO Obs: 70
Wild chamomile (MATCH); Cpd 2 alone 4 g a.i./ha
  Postemergence MATCH Obs: 52
Wild chamomile (MATCH); Cpd 2 alone 8 g a.i./ha
  Postemergence MATCH Obs: 63
Wild chamomile (MATCH); Cpd 2 alone 16 g a.i./ha
  Postemergence MATCH Obs: 75
Wheat (TRZAW); 17 DAA, Cpd 2 1 g a.i./ha
  TRZAW Obs: 20%
Wheat (TRZAW); 17 DAA, Cpd 2 4 g a.i./ha
  TRZAW Obs: 20%
Wheat (TRZAW); 17 DAA, Cpd 2 16 g a.i./ha
  TRZAW Obs: 35%
Barley (HORVX); 17 DAA, Cpd 2 1 g a.i./ha
  HORVX Obs: 25%
Barley (HORVX); 17 DAA, Cpd 2 4 g a.i./ha
  HORVX Obs: 30%
Barley (HORVX); 17 DAA, Cpd 2 16 g a.i./ha
  HORVX Obs: 35%

## O=C(O)CNCP(=O)(O)O [Glyphosate]
Giant ragweed (AMBTR); 7 DAA
  AMBTR Obs: 25%
Giant ragweed (AMBTR); 14 DAA
  AMBTR Obs: 77%
Giant ragweed (AMBTR); 57 DAA
  AMBTR Obs: 85%

## CCc1cccc(C)c1N(C(=O)CCl)[C@@H](C)COC [S-Metolachlor, S-metolachlor, reference compound]
Redroot pigweed (AMARE); 14 DAA, 1000 g a.i./ha
  AMARE Obs: 97%
Redroot pigweed (AMARE); 28 DAA, 1000 g a.i./ha
  AMARE Obs: 78%
Redroot pigweed (AMARE); 62 DAA, 1000 g a.i./ha
  AMARE Obs: 15%
[1]; 19 DAA, 1870 g a.i./ha
  Obs growth % of control: 100%
[1]; 28 DAA, 1870 g a.i./ha
  Obs growth % of control: 53%
